From ChEMBL document CHEMBL3507680, “University of Dundee, Gates Library screen for HepG2 cell viability”

Experiment: Human HepG2 cell viability assay in 384 well format
Format: toxicity, cell-based
Design: dose 125 nL, time 70.5 hour; cytotoxicity at 70.5 h: concentration not given beside the values
Settings: HepG2 cells, read-out: Inhibition

SMILES	cytotoxicity at 70.5 h
CCC(=O)N1CCC(c2nc(N3CCCC3)ncc2S(C)(=O)=O)CC1	17.6%
Cc1cccc(N2CCOCC3(C2)CN(c2ccccc2)C(=O)CO3)n1 (configuration not stated)	-4.51%
COc1cc(N2CC[C@H](O)[C@@H]2Cc2ccccc2)ncn1	16.6%
O=C(CCCn1cnc2ccccc2c1=O)Nc1nc[nH]n1	22.9%
Cc1cccc(CN2Cc3ccnn3CC(COCC3CC3)C2)n1 (configuration not stated)	8.5%
N#Cc1ccc(OCC(O)CN2CCc3cncnc3C2)cc1 (configuration not stated)	2.9%
Cc1cc(C(F)(F)F)cc(N2CCC3(CCC(=O)N(CCO)C3)CC2)n1	-4.65%
COc1ccc(NC(=O)N2CCC(c3noc(C)n3)CC2)cc1C	1.97%
CNC(=O)[C@@H]1CN(C(=O)C2CCC2)C[C@H]1c1ccnc(N2CCCC2)n1	-0.284%
CNS(=O)(=O)c1cccc(C(C)NCc2cccc(OC)c2)c1 (configuration not stated)	10.9%
CC(=O)Nc1ccc(CNCC(O)c2ccc(C)cc2)cc1 (configuration not stated)	-8.81%
COC(=O)N1CCN2C[C@H](CO)[C@@H](c3ccccc3)[C@H]2C1	-4.89%
O=C(O)[C@H]1CN(Cc2ccccc2)C[C@@H]1C(=O)c1ccccc1	-3.77%
CN(C)C(=O)c1ccc(-c2cscn2)cc1	1.52%
COc1ccccc1OC1(C(=O)O)CCN(c2nccnc2OC)CC1	23.1%
CC1COCCN1Cc1noc(C(C)(C)C)n1 (configuration not stated)	19.8%
c1cc(CN2CCOCC3(CCN(CC4CCOCC4)CC3)C2)ccn1	-7.05%
Cc1nn(C)c(N(C)C)c1CNCc1ccccc1Cn1cncn1	-9.26%
Cc1cc2n(n1)CC(CNCc1ccc(-n3cccn3)cc1)CN2 (configuration not stated)	-0.128%
CCN(CC)CCNC(=O)C(C)OCC(F)(F)F (configuration not stated)	-3.49%
COc1ccc(C2CC(=O)Nc3c2nc2n3CCCC2)cc1OC (configuration not stated)	8.63%
Cc1nc(C)c(C)c(N2CCC3(CCN(C)C3)C2)n1 (configuration not stated)	-8.86%
O=C(C1CCCO1)N1CCC(Cn2cc(C3CCCC3)nn2)CC1 (configuration not stated)	2.36%

SMILES	cytotoxicity at 70.5 h
Cc1cc(N(C)C)nc(N2CCn3c(nnc3C3CC3)C2)n1	5.46%
CCc1nc(C2CCCN(C(=O)c3c[nH]c(C(C)C)n3)C2)no1 (configuration not stated)	-10.9%
O=C(Cn1ccc2ccccc21)Nc1cc(N2CCOCC2)ncn1	14.8%
CC(=O)N(Cc1noc(C)n1)C1CCN(Cc2ccc(C#N)cc2)C1 (configuration not stated)	30.3%
CC(C)c1ncc(CN2C[C@@H](CN3CCCC3)[C@@H](CO)C2)cn1	0.637%
Cc1cc(C)n(-c2ccc(C(C)NS(N)(=O)=O)cc2)n1 (configuration not stated)	-11.9%
Cc1ccc([C@@H]2CN(S(=O)(=O)N(C)C)C[C@H]2N(C)C)cc1	-5.83%
CCc1[nH]ncc1C(=O)N1CCCC(n2ccnc2C(C)C)C1 (configuration not stated)	1.64%
COc1nc(C)ccc1CNC(=O)NC(C)Cc1c(C)nn(C)c1C (configuration not stated)	-9.98%
O=C(NC1CCS(=O)(=O)C1)c1cn(C2CC2)c(=O)c2ccccc12 (configuration not stated)	-14.3%
COCCN1CCC12CCN(C(=O)c1ccc(C)nc1)C2 (configuration not stated)	-16.4%
O=C(COc1ccccc1)NCCNC(=O)c1scnc1Cl	-11.8%
O=C1OCCN1c1cccc(CNCc2cc(F)ccc2F)c1	22.6%
CCc1noc(CNCCn2cc(C)cn2)n1	-3.69%
CC(=O)Nc1nc(C(=O)N2CCCCC2Cn2cccn2)cs1 (configuration not stated)	-0.594%
N#CCCN(CC1CCCO1)C(=O)c1ccc2nonc2c1 (configuration not stated)	0.813%
Cc1n[nH]cc1CNC(=O)[C@H]1CCCCN1C(=O)OC(C)(C)C	8.82%
Cc1ccc(F)c(NCC(C)(C)S(C)(=O)=O)c1	-2.22%
N#Cc1ccc(S(=O)(=O)N2CC(CC(=O)O)c3ccccc32)cc1 (configuration not stated)	-3.42%
Cc1ccc(NC2COC3(CCN(CC(C)C)CC3)C2)nn1 (configuration not stated)	27.8%
O=C(NC1CCS(=O)(=O)C1)c1cc(Sc2ncccn2)ccn1 (configuration not stated)	-13.4%
CCc1nc(C2CCCN2Cc2cc(C)nc3ccccc23)no1 (configuration not stated)	2.62%
CCN1CC2(CC1=O)CN(Cc1ccco1)CCN(C(=O)N(C)C)C2 (configuration not stated)	-8.06%

SMILES	cytotoxicity at 70.5 h
O=C1OCCC1N1CCN(C(=O)Cc2c[nH]c3ccccc23)CC1 (configuration not stated)	7.81%
COc1ccc(Br)cc1CCC(=O)N1CCC(O)CC1	-4.79%
COc1ncccc1C(=O)N1CCC(Nc2ccc(C)nn2)CC1	-4.22%
CC(C)(C)OC(=O)NCCC(=O)N(CCC#N)Cc1ccco1	-0.853%
O=C1CCC2(CCN(CC[C@@H](O)c3ccccc3)CC2)CN1CC1CC1	-5.97%
Cc1ccc(NC(=O)N2CCC3(CCC(C(=O)N(C)C)O3)CC2)cc1 (configuration not stated)	-4.12%
Cc1csc(CNC(=O)NC(C)c2ccc3c(c2)CCC(=O)N3)n1 (configuration not stated)	-5.74%
COc1c(C(=O)N2CCC(COCc3ccccc3)C2)c(C)nn1C (configuration not stated)	-0.0423%
CC(C)c1nc(/C=C/c2ccc(O)c(Cl)c2)ncc1C(=O)O	-4.86%
COc1ccc2nc(C[C@@H]3C[C@@H](C(C)C)[C@H](CN(C)C)C=C3C)[nH]c2n1	-3.85%
CN(C)C(=O)N1CCC(C(=O)N2CCOC(CC3CCCCC3)C2)CC1 (configuration not stated)	-0.504%
CN(CCO)Cc1nnc(C2CCN(C(=O)c3cc[nH]c3)CC2)n1C	-1.84%
CC(C)c1nn(C)c(N(C)C)c1CNCc1cccnc1N(C)C	0.645%
O=C1N(c2cccc(F)c2)Cc2nc(=O)n(Cc3ccccc3Cl)n21	-18.7%
O=C(c1cccc(Cl)c1)N1CCCC2(CCCNC2)C1 (configuration not stated)	-1.15%
O=C(NCCn1cccc1)C1CCN(C2CCCCC2)CC1	-13.6%
Cn1cc(NC(=O)c2ccccn2)cc(Br)c1=O	-4.48%
Cc1nc(CC2CCCN(Cc3nc(N)c4ccccc4n3)C2)no1 (configuration not stated)	-7.12%
CSc1cc(CNC(=O)CCOc2ccccc2C)ccn1	-7.07%
O=c1c2cnc(N3CCOCC3)nc2ccn1-c1ccccc1	-7.35%
COCCCn1cnnc1C(C)NC(=O)c1[nH]c2ccc(C)cc2c1C (configuration not stated)	-4.22%
CN(C)C(=O)N1CCn2nc(CNC(=O)CCc3ccccn3)cc2C1	13.6%
Cc1ccc(CN(C(=O)c2cccc(NC(N)=O)c2)C2CC2)o1	-10.5%

SMILES	cytotoxicity at 70.5 h
CNC(=O)[C@H]1C[C@@H]2CN(C(=O)NCCc3ccccc3)C[C@H]1O2	-12%
O=C(NCc1ccco1)[C@H]1COC[C@H]2CN(Cc3ccoc3)C[C@H]21	13.6%
Cc1ccoc1C(=O)NCCOc1ncc(Cl)cc1Cl	-4.36%
O=C(Cc1ccncc1)N1C[C@H]2CC[C@@H]1CN(Cc1cccnc1)C2	8.28%
Cc1nn(C)cc1C1CC(=O)Nc2c1cnn2C(C)C (configuration not stated)	-10.7%
CC(C)Cc1noc(CN2CCCN(C(=O)c3ccccc3Cl)CC2)n1	4.22%
COCCN1CCCC1c1nccnc1Nc1nccs1 (configuration not stated)	-4.09%
CNC(=O)c1cc2c(nc1NCC(C)C)CCN(CC1CC1)CC2	-9.46%
O=C(NCc1cc[nH]n1)N1CCCCC(N2CCCC2)C1 (configuration not stated)	-0.0102%
Cc1n[nH]cc1CNC1(Cc2ccc(Br)cc2)CCCCC1	-1.97%
CCc1nc(C2CCCN(C(=O)c3ccc4[nH]cnc4c3)C2)no1 (configuration not stated)	12.5%
Cc1nnc(C(C)Nc2cccc(COCC(F)(F)C(F)F)c2)o1 (configuration not stated)	24.9%
CC(C)Nc1oc(-c2ccc(S(=O)(=O)N(C)C)o2)nc1C#N	-8.63%
CN1CC[C@]2(CN(C(=O)[C@H]3CCCO3)C[C@H]2c2ccccc2)C1=O	-2.45%
CCCN1CCC(c2nc3ccc(-c4cccc(OC)c4)cn3n2)CC1	-1.57%
COCC(=O)NCC(Cc1cccc(F)c1)n1cccc1 (configuration not stated)	0.782%
COCCN1CC2(CCCN(Cc3cc(=O)c(OC)co3)C2)CCC1=O (configuration not stated)	-8.24%
CC(C)c1nc(CSc2nnc(C3CC3)n2CC(N)=O)no1	-7.31%
Cc1cc(N2CCc3c(ncn3C3CC3)C2)nc(N)n1	-7.99%
O=C(NCC1CCN(c2ccncc2)CC1)C(O)c1ccccc1 (configuration not stated)	7.47%
c1csc(N2CCN(c3ncnc4sccc34)CC2)n1	-7.71%
Cc1nnc(C2CCN(c3ccc(F)cc3)CC2)o1	-9.58%
Cc1ccc2cc(C3(O)CCN(C)CC3)ccc2n1	-0.603%

SMILES	cytotoxicity at 70.5 h
CC(=O)N1CCC(NC(=O)c2cc(Cl)ccc2O)CC1	-4.41%
NC(=O)NC(=O)CCN(Cc1ccccc1)CC1CCOCC1	-2.94%
CN(C)CCCNC(=O)C(c1cccc(F)c1)N(C)C (configuration not stated)	-2.43%
COc1ccc(C(=O)N2CCCC(CNS(C)(=O)=O)C2)cc1F (configuration not stated)	-10.9%
CC(C)c1cc(N2CCC(C(C)N3CCCC3)CC2)n2nccc2n1 (configuration not stated)	-3.16%
COCCN(C)C[C@@H]1CN(c2nnc(C(C)C)s2)C[C@@H]1CO	-9.43%
CN(C(=O)c1ccco1)C1CCC(NC(=O)OC(C)(C)C)CC1 (configuration not stated)	-6.4%
COc1ccc(C(C)NC(=O)Cn2ccc(=O)n(C)c2=O)cc1OC (configuration not stated)	-6.92%
Cc1ccc(C(=O)Nc2cnn(CC(=O)NC3CCCC3)c2)c(=O)[nH]1	-3.7%
CSc1ccccc1CN1CCCn2nc(CNC(=O)N(C)C)cc2C1	-1.85%
COc1ccc(CNCc2c(C(C)C)nn(C)c2N(C)C)cn1	0.065%
Cn1cc(CN2CCC[C@]3(C[C@@H](Oc4ccccn4)CO3)C2)cn1	-6.69%
Cc1nn(C)c(C)c1C1CCCN1CC(=O)NCc1ccccn1 (configuration not stated)	-5.71%
CC(C)[C@@H]1CN(C(=O)c2ccc3c(c2)CCCO3)C[C@H]1NS(C)(=O)=O	-1.93%
CCCn1[nH]cc/c1=N\C(=O)CN1CCCC1Cn1cccn1 (configuration not stated)	-6.25%
CC(=O)N1CCC(N2CC[C@H](c3nc4cc(F)ccc4o3)C2)CC1	0.135%
CCn1cc(S(=O)(=O)N2CCC(C)Sc3ccccc32)cn1 (configuration not stated)	-1.33%
CCCN(CCc1ccccc1)c1ncnc2oc(C)nc12	-2.57%
O=C(NC1CC1)[C@@H]1C[C@@H]2CCN(Cc3ccccc3)C[C@@H]2O1	25.4%
Cc1nc2c(C)cccc2cc1C(=O)N1CCC2(CC1)NCCNC2=O	-15.8%
